Tests used:
Assay in all cases: relative viability (nuclei count vs DMSO), 5 days (fraction); higher = more cells survive
NCI-H1793 = tested on: NCI-H1793
How it was run: (§1)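 One day after seeding in 1536-well plates, lung cancer cell lines were dosed by pin tool. Dosing was either single-drug or a fixed anchor-drug dose plus five library-drug doses (not always all listed) in √10 steps. After 5 days, nuclei were stained in one fix-and-stain step and counted on 4× images, and relative viability is the nuclei count of treated wells over that of vehicle wells, given as the median of duplicate plates.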

LXF-289 = tested on: LXF-289
How it was run: as §1

NCI-H2228 = tested on: NCI-H2228
How it was run: as §1

HCC-827 = tested on: HCC-827
How it was run: as §1

NCI-H2405 = tested on: NCI-H2405
How it was run: as §1

NCI-H3122 = tested on: NCI-H3122
How it was run: as §1

NCI-H1944 = tested on: NCI-H1944
How it was run: as §1

BEN = tested on: BEN
How it was run: as §1

RERF-LC-KJ = tested on: RERF-LC-KJ
How it was run: as §1

CAL-12T = tested on: CAL-12T
How it was run: as §1

NCI-H322M = tested on: NCI-H322M
How it was run: as §1

NCI-H1650 = tested on: NCI-H1650
How it was run: as §1

HOP-62 = tested on: HOP-62
How it was run: as §1

NCI-H647 = tested on: NCI-H647
How it was run: as §1

NCI-H1395 = tested on: NCI-H1395
How it was run: as §1

LCLC-97TM1 = tested on: LCLC-97TM1
How it was run: as §1

NCI-H1437 = tested on: NCI-H1437
How it was run: as §1

HCC-44 = tested on: HCC-44
How it was run: as §1

NCI-H2087 = tested on: NCI-H2087
How it was run: as §1

SK-LU-1 = tested on: SK-LU-1
How it was run: as §1

NCI-H727 = tested on: NCI-H727
How it was run: as §1

201T = tested on: 201T
How it was run: as §1

C=C1C(=O)O[C@@H](CCCCCCCC)[C@@H]1C(=O)O [C-75] + CS(=O)(=O)CCNCc1ccc(-c2ccc3ncnc(Nc4ccc(OCc5cccc(F)c5)c(Cl)c4)c3c2)o1 [Lapatinib] (partner 2 µM)
relative viability (NCI-H1793; first compound 0.08 µM): 0.635
relative viability (NCI-H1793; first compound 0.253 µM): 0.785
relative viability (NCI-H1793; first compound 0.8 µM): 0.493
relative viability (NCI-H1793; first compound 2.53 µM): 0.483
relative viability (NCI-H1793; first compound 8 µM): 0.713
relative viability (LXF-289; first compound 0.08 µM): 0.842
relative viability (LXF-289; first compound 0.253 µM): 0.872
relative viability (LXF-289; first compound 0.8 µM): 0.895
relative viability (LXF-289; first compound 2.53 µM): 0.925
relative viability (LXF-289; first compound 8 µM): 0.908
relative viability (NCI-H2228; first compound 0.08 µM): 1.11
relative viability (NCI-H2228; first compound 0.253 µM): 1.19
relative viability (NCI-H2228; first compound 0.8 µM): 1.1
relative viability (NCI-H2228; first compound 2.53 µM): 0.903
relative viability (NCI-H2228; first compound 8 µM): 1.03
relative viability (HCC-827; first compound 0.08 µM): 0.23
relative viability (HCC-827; first compound 0.253 µM): 0.235
relative viability (HCC-827; first compound 0.8 µM): 0.212
relative viability (HCC-827; first compound 2.53 µM): 0.191
relative viability (HCC-827; first compound 8 µM): 0.205
relative viability (NCI-H2405; first compound 0.08 µM): 1.07
relative viability (NCI-H2405; first compound 0.253 µM): 0.772
relative viability (NCI-H2405; first compound 0.8 µM): 1
relative viability (NCI-H2405; first compound 2.53 µM): 1.07
relative viability (NCI-H2405; first compound 8 µM): 1.06
relative viability (NCI-H3122; first compound 0.08 µM): 1.03
relative viability (NCI-H3122; first compound 0.253 µM): 1.02
relative viability (NCI-H3122; first compound 0.8 µM): 0.997
relative viability (NCI-H3122; first compound 8 µM): 1.02
relative viability (NCI-H1944; first compound 0.08 µM): 0.792
relative viability (NCI-H1944; first compound 0.253 µM): 0.755
relative viability (NCI-H1944; first compound 0.8 µM): 0.685
relative viability (NCI-H1944; first compound 8 µM): 0.682
relative viability (BEN; first compound 0.08 µM): 0.793
relative viability (BEN; first compound 0.253 µM): 0.785
relative viability (BEN; first compound 0.8 µM): 0.682
relative viability (BEN; first compound 2.53 µM): 0.645
relative viability (BEN; first compound 8 µM): 0.694
relative viability (RERF-LC-KJ; first compound 0.08 µM): 0.826
relative viability (RERF-LC-KJ; first compound 0.253 µM): 0.866
relative viability (RERF-LC-KJ; first compound 0.8 µM): 0.863
relative viability (RERF-LC-KJ; first compound 2.53 µM): 0.872
relative viability (RERF-LC-KJ; first compound 8 µM): 0.966
relative viability (CAL-12T; first compound 0.08 µM): 0.673
relative viability (CAL-12T; first compound 0.253 µM): 0.863
relative viability (CAL-12T; first compound 0.8 µM): 0.492
relative viability (CAL-12T; first compound 2.53 µM): 0.604
relative viability (CAL-12T; first compound 8 µM): 0.765
relative viability (NCI-H322M; first compound 0.08 µM): 0.597
relative viability (NCI-H322M; first compound 0.253 µM): 0.744
relative viability (NCI-H322M; first compound 0.8 µM): 0.59
relative viability (NCI-H322M; first compound 2.53 µM): 0.568
relative viability (NCI-H322M; first compound 8 µM): 0.629
relative viability (NCI-H1650; first compound 0.08 µM): 0.844
relative viability (NCI-H1650; first compound 0.253 µM): 0.914
relative viability (NCI-H1650; first compound 0.8 µM): 0.775
relative viability (NCI-H1650; first compound 2.53 µM): 0.963
relative viability (NCI-H1650; first compound 8 µM): 1.09
relative viability (HOP-62; first compound 0.08 µM): 1.07
relative viability (HOP-62; first compound 0.253 µM): 1.09
relative viability (HOP-62; first compound 0.8 µM): 0.955
relative viability (HOP-62; first compound 2.53 µM): 0.713
relative viability (HOP-62; first compound 8 µM): 0.817
relative viability (NCI-H647; first compound 0.08 µM): 0.896
relative viability (NCI-H647; first compound 0.253 µM): 1.38
relative viability (NCI-H647; first compound 2.53 µM): 0.791
relative viability (NCI-H647; first compound 8 µM): 0.584
relative viability (NCI-H1395; first compound 0.08 µM): 0.997
relative viability (NCI-H1395; first compound 0.253 µM): 1.11
relative viability (NCI-H1395; first compound 0.8 µM): 0.949
relative viability (NCI-H1395; first compound 2.53 µM): 1.49
relative viability (NCI-H1395; first compound 8 µM): 1.06
relative viability (LCLC-97TM1; first compound 0.08 µM): 0.684
relative viability (LCLC-97TM1; first compound 0.253 µM): 1.67
relative viability (LCLC-97TM1; first compound 0.8 µM): 0.881
relative viability (LCLC-97TM1; first compound 2.53 µM): 0.555
relative viability (LCLC-97TM1; first compound 8 µM): 0.543
relative viability (NCI-H1437; first compound 0.08 µM): 0.757
relative viability (NCI-H1437; first compound 0.253 µM): 0.785
relative viability (NCI-H1437; first compound 0.8 µM): 0.746
relative viability (NCI-H1437; first compound 2.53 µM): 0.754
relative viability (NCI-H1437; first compound 8 µM): 0.712
relative viability (HCC-44; first compound 0.08 µM): 0.943
relative viability (HCC-44; first compound 0.253 µM): 0.963
relative viability (HCC-44; first compound 0.8 µM): 0.943
relative viability (HCC-44; first compound 2.53 µM): 0.946
relative viability (HCC-44; first compound 8 µM): 0.962
relative viability (NCI-H2087; first compound 0.08 µM): 1.07
relative viability (NCI-H2087; first compound 0.253 µM): 0.975
relative viability (NCI-H2087; first compound 0.8 µM): 1.1
relative viability (NCI-H2087; first compound 2.53 µM): 0.868
relative viability (NCI-H2087; first compound 8 µM): 0.776
relative viability (SK-LU-1; first compound 0.08 µM): 0.795
relative viability (SK-LU-1; first compound 0.253 µM): 0.91
relative viability (SK-LU-1; first compound 0.8 µM): 0.843
relative viability (SK-LU-1; first compound 2.53 µM): 0.795
relative viability (SK-LU-1; first compound 8 µM): 0.577
relative viability (NCI-H727; first compound 0.08 µM): 0.881
relative viability (NCI-H727; first compound 0.253 µM): 1.54
relative viability (NCI-H727; first compound 0.8 µM): 0.711
relative viability (NCI-H727; first compound 2.53 µM): 0.841
relative viability (NCI-H727; first compound 8 µM): 1.22
relative viability (201T; first compound 0.08 µM): 1
relative viability (201T; first compound 0.253 µM): 1.2
relative viability (201T; first compound 0.8 µM): 0.959
relative viability (201T; first compound 2.53 µM): 0.886
relative viability (201T; first compound 8 µM): 1.05

Source: the supplement of paper PMC10307832
